Results: patent US12227495B2, “Herbicidal compounds” (SYNGENTA CROP PROTECTION AG, priority 2018, dated 2025)

What was measured:
Type in all cases: in vivo
Settings in all cases: evaluated after 13 days
[1] = system: Amaranthus retoflexus (AMARE); assay: Post-emergence herbicide test, glasshouse, percentage damage
Outline: (§1)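 Percentage damage, recorded 13 days after treatment, is given as a five-point score (1=0-20%, 2=21-40%, 3=41-60%, 4=61-80%, 5=81-100%). Plants grown in soil pots under 24/16 °C, 14 h light and 65% humidity received a 500 g/ha spray (unless stated otherwise).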

[2] = system: Echinochloa crus-galli (ECHCG); assay: as above
Outline: as §1

[3] = system: Ipomoea hederacea (IPOHE); assay: as above
Outline: as §1

Lolium perenne (LOLPE) [4] = assay: as above
Outline: as §1

Setaria faberi (SETFA) [5] = assay: as above
Outline: as §1

Solanum nigrum (SOLNI) [6] = assay: as above
Outline: as §1

[7] = system: Amaranthus retoflexus (AMARE); assay: Pre-emergence herbicide test, glasshouse, percentage damage
Outline: as §1

[8] = system: Echinochloa crus-galli (ECHCG); assay: as above
Outline: as §1

[9] = system: Ipomoea hederacea (IPOHE); assay: as above
Outline: as §1

Lolium perenne (LOLPE) [10] = assay: as above
Outline: as §1

Setaria faberi (SETFA) [11] = assay: as above
Outline: as §1

Solanum nigrum (SOLNI) [12] = assay: as above
Outline: as §1

Compound | percentage damage caused to the plant, AMARE ([1]; 1000 g/ha) | percentage damage caused to the plant, ECHCG ([2]; 1000 g/ha) | percentage damage caused to the plant, IPOHE ([3]; 1000 g/ha) | percentage damage caused to the plant, LOLPE (Lolium perenne (LOLPE) [4]; 1000 g/ha) | percentage damage caused to the plant, SETFA (Setaria faberi (SETFA) [5]; 1000 g/ha) | percentage damage caused to the plant, SOLNI (Solanum nigrum (SOLNI) [6]; 1000 g/ha) | Pre-emergence Test AMARE percentage damage (five point scale) ([7]; rate 1000 g/ha) | Pre-emergence Test ECHCG percentage damage (five point scale) ([8]; rate 1000 g/ha) | Pre-emergence Test IPOHE percentage damage (five point scale) ([9]; rate 1000 g/ha) | Pre-emergence Test LOLPE percentage damage (five point scale) (Lolium perenne (LOLPE) [10]; rate 1000 g/ha) | Pre-emergence Test SETFA percentage damage (five point scale) (Setaria faberi (SETFA) [11]; rate 1000 g/ha) | Pre-emergence Test SOLNI percentage damage (five point scale) (Solanum nigrum (SOLNI) [12]; rate 1000 g/ha) | further results
Fc1cnc(Oc2cccc(Br)c2-c2cc(C(F)F)no2)c(F)c1 [Compound A101] | 5 (5=81-100%) | 4 (4=61-80%) | 5 (5=81-100%) | 4 (4=61-80%) | 5 (5=81-100%) | 5 (5=81-100%) | 5 (5=81-100%) | 5 (5=81-100%) | 5 (5=81-100%) | 5 (5=81-100%) | 5 (5=81-100%) | 4 (4=61-80%) | 
FC(F)c1cc(-c2c(Cl)cccc2Oc2cc(Cl)ccn2)on1 [Compound A92] | 4 (4=61-80%) | 4 (4=61-80%) | 4 (4=61-80%) | 4 (4=61-80%) | 4 (4=61-80%) | 4 (4=61-80%) | 4 (4=61-80%) | 1 (1=0-20%) | 4 (4=61-80%) | 5 (5=81-100%) | 5 (5=81-100%) | 2 (2=21-40%) | 
Fc1cc(Cl)cnc1Oc1cccc(Cl)c1-n1cc(C(F)(F)F)cn1 [Compound A159] | 5 (5=81-100%) | 3 (3=41-60%) | 4 (4=61-80%) | 4 (4=61-80%) | 5 (5=81-100%) | 5 (5=81-100%) | 5 (5=81-100%) | 5 (5=81-100%) | 2 (2=21-40%) | 5 (5=81-100%) | 5 (5=81-100%) | 5 (5=81-100%) | 
N#Cc1cccc(Oc2ccc(Cl)cn2)c1-c1cc(C(F)F)no1 [Compound A161] | 5 (5=81-100%) | 5 (5=81-100%) | 5 (5=81-100%) | 5 (5=81-100%) | 5 (5=81-100%) | 5 (5=81-100%) | 5 (5=81-100%) | 5 (5=81-100%) | 5 (5=81-100%) | 5 (5=81-100%) | 5 (5=81-100%) | 4 (4=61-80%) | 
Fc1ccc(Oc2cccc(F)c2-c2cc(C(F)F)no2)nc1F [Compound A50] | 3 (3=41-60%) | 2 (2=21-40%) | 1 (1=0-20%) | 1 (1=0-20%) | 3 (3=41-60%) | 5 (5=81-100%) | 4 (4=61-80%) | 1 (1=0-20%) | 1 (1=0-20%) | 1 (1=0-20%) | 4 (4=61-80%) | 4 (4=61-80%) | 
Fc1cnc(Oc2cccc(Cl)c2-c2cc(C(F)F)no2)c(F)c1 [Compound A114] | 5 (5=81-100%) | 4 (4=61-80%) | 5 (5=81-100%) | 4 (4=61-80%) | 5 (5=81-100%) | 5 (5=81-100%) | 5 (5=81-100%) | 5 (5=81-100%) | 5 (5=81-100%) | 5 (5=81-100%) | 5 (5=81-100%) | 4 (4=61-80%) | 
COc1cccc(Oc2ncc(Cl)cc2F)c1-n1cc(C(F)(F)F)cn1 [Compound A36, 5-chloro-3-fluoro-2-[3-methoxy-2-[4-(trifluoromethyl)pyrazol-1-yl]phenoxy]pyridine] | 5 (5=81-100%) | 4 (4=61-80%) | 2 (2=21-40%) | 4 (4=61-80%) | 5 (5=81-100%) | 5 (5=81-100%) | 5 (5=81-100%) | 5 (5=81-100%) | 5 (5=81-100%) | 3 (3=41-60%) | 5 (5=81-100%) | 5 (5=81-100%) | 
Fc1cc(Cl)cnc1Oc1ccccc1-n1cncn1 [Compound A29] | 4 (4=61-80%) | 1 (1=0-20%) | 2 (2=21-40%) | 1 (1=0-20%) | 2 (2=21-40%) | 4 (4=61-80%) | 5 (5=81-100%) | 1 (1=0-20%) | 1 (1=0-20%) | 1 (1=0-20%) | 4 (4=61-80%) | 3 (3=41-60%) | 
N#Cc1cc(Cl)cnc1Oc1cccc(F)c1-c1cc(C(F)F)no1 [Compound A37] | 5 (5=81-100%) | 4 (4=61-80%) | 5 (5=81-100%) | 4 (4=61-80%) | 5 (5=81-100%) | 5 (5=81-100%) | 5 (5=81-100%) | 5 (5=81-100%) | 5 (5=81-100%) | 5 (5=81-100%) | 5 (5=81-100%) | 5 (5=81-100%) | 
Fc1cccc(Oc2ncc(Cl)cc2Cl)c1-c1cc(C(F)F)no1 [Compound A4] |  |  |  |  |  |  |  |  |  |  |  |  | percentage damage caused to the plant, AMARE ([1]; 500 g/ha): 5 (5=81-100%); percentage damage caused to the plant, ECHCG ([2]; 500 g/ha): 1 (1=0-20%); percentage damage caused to the plant, IPOHE ([3]; 500 g/ha): 1 (1=0-20%); percentage damage caused to the plant, LOLPE (Lolium perenne (LOLPE) [4]; 500 g/ha): 1 (1=0-20%); percentage damage caused to the plant, SETFA (Setaria faberi (SETFA) [5]; 500 g/ha): 3 (3=41-60%); percentage damage caused to the plant, SOLNI (Solanum nigrum (SOLNI) [6]; 500 g/ha): 5 (5=81-100%); Pre-emergence Test AMARE percentage damage (five point scale) ([7]; rate 500 g/ha): 3 (3=41-60%); Pre-emergence Test ECHCG percentage damage (five point scale) ([8]; rate 500 g/ha): 2 (2=21-40%); Pre-emergence Test IPOHE percentage damage (five point scale) ([9]; rate 500 g/ha): 1 (1=0-20%); Pre-emergence Test LOLPE percentage damage (five point scale) (Lolium perenne (LOLPE) [10]; rate 500 g/ha): 1 (1=0-20%); Pre-emergence Test SETFA percentage damage (five point scale) (Setaria faberi (SETFA) [11]; rate 500 g/ha): 2 (2=21-40%); Pre-emergence Test SOLNI percentage damage (five point scale) (Solanum nigrum (SOLNI) [12]; rate 500 g/ha): 3 (3=41-60%)
Fc1cnc(Oc2cccc(F)c2-c2cc(C(F)F)no2)c(F)c1 [Compound A10] |  |  |  |  |  |  |  |  |  |  |  |  | percentage damage caused to the plant, AMARE ([1]; 500 g/ha): 5 (5=81-100%); percentage damage caused to the plant, ECHCG ([2]; 500 g/ha): 5 (5=81-100%); percentage damage caused to the plant, IPOHE ([3]; 500 g/ha): 5 (5=81-100%); percentage damage caused to the plant, LOLPE (Lolium perenne (LOLPE) [4]; 500 g/ha): 5 (5=81-100%); percentage damage caused to the plant, SETFA (Setaria faberi (SETFA) [5]; 500 g/ha): 5 (5=81-100%); percentage damage caused to the plant, SOLNI (Solanum nigrum (SOLNI) [6]; 500 g/ha): 5 (5=81-100%); Pre-emergence Test AMARE percentage damage (five point scale) ([7]; rate 500 g/ha): 5 (5=81-100%); Pre-emergence Test ECHCG percentage damage (five point scale) ([8]; rate 500 g/ha): 5 (5=81-100%); Pre-emergence Test IPOHE percentage damage (five point scale) ([9]; rate 500 g/ha): 5 (5=81-100%); Pre-emergence Test LOLPE percentage damage (five point scale) (Lolium perenne (LOLPE) [10]; rate 500 g/ha): 5 (5=81-100%); Pre-emergence Test SETFA percentage damage (five point scale) (Setaria faberi (SETFA) [11]; rate 500 g/ha): 5 (5=81-100%); Pre-emergence Test SOLNI percentage damage (five point scale) (Solanum nigrum (SOLNI) [12]; rate 500 g/ha): 5 (5=81-100%)
O=[N+]([O-])c1ccc(Oc2cccc(Br)c2-c2cc(C(F)F)no2)nc1 [Compound A88] | 5 (5=81-100%) | 4 (4=61-80%) | 2 (2=21-40%) | 3 (3=41-60%) | 4 (4=61-80%) | 4 (4=61-80%) | 5 (5=81-100%) | 5 (5=81-100%) | 1 (1=0-20%) | 4 (4=61-80%) | 5 (5=81-100%) | 4 (4=61-80%) | 
